Measured values taken from patent US20060019335A1, “Compositions and methods to promote c-IAP autodegradation” (priority 2004, published 2006).
Residues, ends and D or L forms follow the SMILES beside them. *: point of attachment. Cbz = O=C(OCc1ccccc1)*

Assays:
c-IAP2 = target: T1, c-IAP2 (Homo sapiens, UniProt Q13489); assay: Co-transfection of HeLa cells with c-IAP2 and Smac plasmids, Western blot; type: cell-based; settings: MG132 added
T1 construct: produced not only the expected full length c-IAP1 or c-IAP2; expressed in transfected cells; host or cells: HeLa
T1 sequence (Q13489 whole entry): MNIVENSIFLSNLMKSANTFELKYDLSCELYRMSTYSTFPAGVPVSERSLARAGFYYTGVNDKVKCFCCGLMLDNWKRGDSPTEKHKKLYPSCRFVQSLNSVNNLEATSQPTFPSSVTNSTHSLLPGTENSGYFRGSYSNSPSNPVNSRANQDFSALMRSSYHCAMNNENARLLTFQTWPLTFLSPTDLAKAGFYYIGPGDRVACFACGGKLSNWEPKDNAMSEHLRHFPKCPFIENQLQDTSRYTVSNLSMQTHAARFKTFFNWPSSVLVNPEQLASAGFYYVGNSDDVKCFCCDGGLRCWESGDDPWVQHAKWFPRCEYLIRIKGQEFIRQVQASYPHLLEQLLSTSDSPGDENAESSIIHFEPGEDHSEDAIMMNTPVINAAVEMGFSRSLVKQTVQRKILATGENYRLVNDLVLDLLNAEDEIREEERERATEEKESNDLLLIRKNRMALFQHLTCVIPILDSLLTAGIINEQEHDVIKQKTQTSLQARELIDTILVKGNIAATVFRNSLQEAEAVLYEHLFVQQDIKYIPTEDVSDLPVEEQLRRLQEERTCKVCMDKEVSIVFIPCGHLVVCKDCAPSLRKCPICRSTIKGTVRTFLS
Method: (§1) Transfection of cultured Cells—HeLa cells were grown in DMEM supplemented with 10% fetal bovine serum. Cells were seeded onto 6-well plates the day before transfection and transfected at 70% confluence by using Lipofectin combined with Plus reagent (Invitrogen) according to the manufacture's protocols. The IAP expression plasmids (3 μg each for c-IAP1, c-IAP2 and XIAP, and 250 ng each for Livin αand Livin β) together with 2.5 μg of Smac expression plasmids or pcDNA3.1(−) blank plasmid were used for single-well transfection in the absence of antibiotics. The cells were harvested 12 hours after the transfection and lysed with 0.5% CHAPS in 20 mM HEPES (pH 7.4), 10 mM KCl, 1 mM MgCl2 and 1 mM DTT. The lysates were centrifuged and the protein concentrations of the supernatants were quantified by the modified Bradford method (36).
(§2) Western Blot analysis—Proteins were resolved by SDS-PAGE and transferred to nitrocellulose filters. The filters were blocked with 5% milk and probed with antibodies as indicated. The signals were visualized with the enhanced chemiluminescence method.
(§3) To investigate the effect of Smac polypeptide on IAP protein levels, HeLa cells were transfected with the expression vectors for Smac and various IAPs. Briefly, HeLa cells were either transfected with IAP alone (Lane 2, 4 and 6), or together with Smac polypeptide (Lane 3, 5 and 7), or with Smac polypeptide alone (Lane 1). Equal amounts of cell lysates (7 μg) were immunoblotted with either the HRP-conjugated anti-FLAG antibody (shown in the top panel) in order to detect N-terminal 3×FLAG tagged IAPs, or with the anti-c-Myc antibody (bottom panel) to detect C-terminal c-Myc tagged Smac. The ubiquitin fusion technique was used to secure the production of mature Smac protein with the expected N-terminal AVPI motif (6, 37).
(§4) Because it is known that the His^588 residue in the RING finger domain is important for the IAP E3 activity (22), this residue was mutated to test whether Smac stimulated the ubiquitylation-mediated degradation of both c-IAP1 and c-IAP2. In each case, His^588 in c-IAP1 and His^574 in c-IAP2 was mutated to Ala (H588A mutant and H574A mutant, respectively) and the results are depicted in FIGS. 2A and 2B. The c-IAP1 WT or H588A mutant plasmids together with either Smac WT or Smac ΔA mutant, or with pcDNA3.1 (−) blank plasmid were co-transfected into HeLa cells (FIG. 2A). The c-IAP2 WT or H574A mutant plasmids together with either Smac WT or Smac ΔA mutant, or with pcDNA3.1 (−) blank plasmid were co-transfected into HeLa cells (FIG. 2B). As controls, HeLa cells were also transfected with either Smac WT or ΔA plasmids together with the blank p3×FLAG-CMV-7 plasmid. The transfected cells were cultivated either in the absence (see lanes 1-7 of FIGS. 2A and 2B) or in the presence (see lanes 8-14 of FIGS. 2A and 2B) of MG132. Equal amounts of soluble proteins (7 μg) from the transfected cells were immunoblotted with either the HRP-conjugated anti-FLAG antibody (see top panel of FIGS. 2A and 2B) to detect N-terminal 3×FLAG tagged IAPs, or with the anti-c-Myc antibody (see middle panel of FIGS. 2A and 2B) to detect C-terminal c-Myc tagged Smac. The anti-Actin immunoblotting results were to show equal protein loading (see bottom panel of FIGS. 2A and 2B).

XIAP = XIAP (Homo sapiens, UniProt P98170); assay: Co-transfection of HeLa cells with XIAP and Smac plasmids, Western blot; type: cell-based; design: expressed in transfected cells; host or cells: HeLa; settings: presence of MG132
XIAP, sequence (P98170 whole entry): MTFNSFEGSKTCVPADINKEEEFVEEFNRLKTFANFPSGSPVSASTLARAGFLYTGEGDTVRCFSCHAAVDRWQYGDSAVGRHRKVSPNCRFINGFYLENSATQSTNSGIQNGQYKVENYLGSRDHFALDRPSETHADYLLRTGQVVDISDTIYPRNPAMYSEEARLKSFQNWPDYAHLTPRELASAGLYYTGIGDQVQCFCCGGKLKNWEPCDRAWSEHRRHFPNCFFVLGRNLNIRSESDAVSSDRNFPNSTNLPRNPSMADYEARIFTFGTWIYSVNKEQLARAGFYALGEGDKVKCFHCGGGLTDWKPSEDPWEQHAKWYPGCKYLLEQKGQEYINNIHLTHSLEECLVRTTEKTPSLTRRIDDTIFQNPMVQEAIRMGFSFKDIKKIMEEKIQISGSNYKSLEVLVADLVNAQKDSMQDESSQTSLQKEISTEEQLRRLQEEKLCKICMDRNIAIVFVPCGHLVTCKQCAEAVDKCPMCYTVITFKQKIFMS
Method: as §1, §2, §3
It is known that XIAP is ubiquitylated by its own E3 activity when expressed in HEK 293T cells and that this auto-ubiquitylation and subsequent degradation is stimulated by Reaper (26). In the current study, XIAP transiently expressed in HeLa cells was ubiquitylated as well; however, mono-ubiquitylation rather than poly-ubiquitylation of XIAP was the major product (see FIG. 3A). Briefly, XIAP WT or H467A mutant plasmids together with either Smac WT or ΔA, or with pcDNA3.1(−) blank plasmid, were co-transfected into the HeLa cells. As controls, HeLa cells were also transfected with either Smac WT or ΔA plasmids together with the blank p3×FLAG-CMV-7 plasmid. The transfected cells were cultivated either in the absence (see lanes 1-7 of FIG. 3A) or in the presence (see lanes 8-14 of FIG. 3A) of MG132. Equal amounts of soluble proteins (7 μg) from the transfected cells were immunoblotted with either the HRP-conjugated anti-FLAG antibody (see top panel of FIG. 3A) to detect N-terminal 3×FLAG tagged IAPs, or with the anti-c-Myc antibody (see middle panel of FIG. 3A) to detect Smac. The anti-Actin immunoblotting results were to show equal protein loading (see bottom panel of FIG. 3A).

c-IAP1 [1] = assay: Co-transfection of HeLa cells with c-IAP1 and Smac plasmids, Western blot; type: cell-based, human; settings: MG132 added to the culture medium
Method: as §1, §2, §3, §4

c-IAP1 [2] = assay: In vitro ubiquitylation assay of purified c-IAP1 and BIR deletion mutants; type: biochemical, human
Method: In vitro ubiquitylation assays—In vitro ubiquitylation assays were carried out as previously described (29). IAP proteins (200 nM) were incubated with or without Smac polypeptide for 2 hours at 30° C. in a reaction system containing 50 mM Tris-HCl (pH 7.5), 50 mM NaCl, 2 mM Mg-ATP, 20 μM mammalian ubiquitin, 100 nM rabbit ubiquitin-activating enzyme (E1) and 400 nM of recombinant human ubiquitin-conjugating enzymes (E2). The reactions were stopped by adding equal volumes of 2×SDS sample loading buffer followed by Western Blot analysis.
To determine whether Smac promotes auto-ubiquitylation of XIAP, purified XIAP (without tag) was incubated for 2 hours at 30° C. either with or without different concentrations of Smac or with Smac ΔA in the reconstituted ubiquitylation reaction system (Ub Mix) consisting of 50 mM Tris-HCl (pH 7.5), 50 mM NaCl, 2 mM Mg-ATP, 20 μM mammalian ubiquitin, 100 nM rabbit ubiquitin-activating enzyme (E1) and 400 nM UbCH6 (E2). The reactions were stopped by adding equal volumes of 2×SDS sample loading buffer and the products were subjected to SDS-PAGE followed by immunoblotting with anti-XIAP antibody. The purified XIAP was active in directing poly-ubiquitylation. But the auto-ubiquitylation of XIAP was not enhanced by Smac.
Smac ΔA and the peptide Smac-7M were used as negative controls. The reactions were stopped by adding equal volumes of 2×SDS sample loading buffer and the products were subjected to SDS-PAGE followed by immunoblotting with anti-c-IAP1 antibody. The arrows indicate the unmodified full length or deleted c-IAP1.
To verify this, stepwise deletion was performed of the first BIR (ΔBIR1, residues 1-161), the first two BIRs (ΔBIR1-2, residues 1-265), or all the three BIR domains (ΔBIR1-2-3, residues 1-339) from c-IAP1. All these mutants and the full-length wild type c-IAP1 were purified as a non-tagged form by using the pTYB11 Intein system (New England Biolabs).
Target sequence in this assay (Q13490 162-618): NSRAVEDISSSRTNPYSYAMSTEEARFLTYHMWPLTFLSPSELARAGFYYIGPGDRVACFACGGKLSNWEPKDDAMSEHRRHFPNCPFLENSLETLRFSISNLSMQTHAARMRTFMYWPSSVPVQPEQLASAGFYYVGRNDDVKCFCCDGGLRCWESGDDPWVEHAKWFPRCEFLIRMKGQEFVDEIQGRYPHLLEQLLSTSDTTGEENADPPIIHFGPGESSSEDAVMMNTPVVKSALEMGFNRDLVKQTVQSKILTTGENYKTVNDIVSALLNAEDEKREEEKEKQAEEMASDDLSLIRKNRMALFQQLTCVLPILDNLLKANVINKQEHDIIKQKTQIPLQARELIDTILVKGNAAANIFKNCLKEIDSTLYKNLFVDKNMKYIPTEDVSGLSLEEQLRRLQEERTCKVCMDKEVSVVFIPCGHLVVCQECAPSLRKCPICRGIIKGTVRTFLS

| Compound | level of c-IAP2 (c-IAP2) | poly-ubiquitylated XIAP products (XIAP) | H588A c-IAP1 protein level (c-IAP1 [1]) | amount of wild type c-IAP1 (c-IAP1 [1]) | stimulation of E3 activity of c-IAP compared with full length Smac (c-IAP1 [2]; as illustrated in the Examples) | E3 activity of c-IAP1ΔBIR1 (c-IAP1 [2]; peptides and controls, FIG. 7B) |
| --- | --- | --- | --- | --- | --- | --- |
| CC(C)C[C@@H](C=O)NC(=O)[C@H](CC(C)C)NC(=O)[C@H](CC(C)C)NC(=O)OCc1ccccc1 [MG132, reference compound] (Cbz-Leu-Leu-Leu-aldehyde) | did not show such a significant change | more poly-ubiquitylated XIAP products could be detected | did not cause a significant increase | dramatically increased | – | – |
| AVPIAQ (listed as Homo sapiens) [Smac-6] | – | – | – | – | as effectively as the full length Smac polypeptide | effectively stimulated E3 activity |
